According to patent US7223759B2, “Antibacterial 3,5-diaminopiperidine-substituted aromatic and heteroaromatic compounds” (Anadys Pharmaceuticals, Inc., priority 2003, dated 2007):
Where two headings read alike, the source gives them in different places.

Test system: Escherichia coli (ATCC25922) or Staphylococcus aureus (ATCC25923)
Test: Antibacterial MIC, microdilution method in Mueller-Hinton medium
Format: cell-based
Details: Escherichia coli, 18 h, read-out: Potency (MIC)
How it was run: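 Read after 18 h incubation at 35° C, MIC is the lowest compound level that blocked growth. Compounds were tested in duplicate over 64–0.5 μg/ml two-fold dilutions using Mueller-Hinton microdilution per NCCLS standard.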

[1] = MIC in E. coli or S. aureus, two-fold serial dilutions 64 to 0.5 μg/ml in duplicate, 18 hours of incubation at 35° C.

Which MIC [1] does the source give for `Cl.NC1CCCN(c2nc(Nc3ccc(Cl)c(Cl)c3)nc(N3CCCCC3)n2)C1` [(3R,5S)-1-[4-(3-Amino-piperidin-1-yl)-6-(3,4-dichloro-phenylammino)-[1,3,5]triazin-22-yl]-piperidine-3,5-diamine] here?
The MIC was < 64 µg/mL.

For `Cc1cc(Nc2nc(N3C[C@H](N)C[C@H](N)C3)nc(N3C[C@H](N)C[C@H](N)C3)n2)ccc1NC(=O)c1cc2cccc(O)c2cc1O` [N-{4-[(3,5-dihydroxy-naphthalene-2-carbonyl)-amino]-3-methyl-phenyl]-4,6-Bis-((3R,5S)-3,5-diamino-piperidin-1-yl)-[1,3,5]triazine-2-amine], which MIC [1] is on record?
Its MIC is < 64 µg/mL.

How did the MIC [1] turn out when `N[C@@H]1C[C@H](N)CN(c2nc(Nc3ccc(SC(F)(F)F)cc3)nc(N3C[C@H](N)C[C@H](N)C3)n2)C1` [N-(4-trifluoromethylsulfanyl-phenyl)-4,6-Bis-((3R,5S)-3,5-diamino-piperidin-1-yl)-[1,3,5]triazine-2-amine] was run?
The MIC was < 64 µg/mL.

With `Cl.O=C(Nc1ccc(Nc2nc(N3CCCCC3)nc(N3CCCC3)n2)cc1O)c1ccc(Cl)cc1` [4-Chloro-N-{4-[4-((3R,5S)-3,5-diamino-piperidin-1-yl)-6-((3R,4S)-3,4-diamino-pyrrolidsin-1-yl)-[1,3,5]triazin-2-ylamino]-2-hydroxy-phenyl}-benzamide] as the compound, how does the MIC [1] read?
Its MIC is < 64 µg/mL.

Which MIC does the source give for `N[C@@H]1C[C@H](N)CN(c2nc(Nc3ccc(NC(=O)c4c(O)ccc5ccccc45)cc3)nc(N3C[C@H](N)C[C@H](N)C3)n2)C1` [N-{4-[(2-hydroxy-naphthalene-1-carbonyl)-amino]-phenyl}-4,6-Bis-((3R,5S)-3,5-diamino-piperidin-1-yl)-[1,3,5]triazine-2-amine] here?
Its MIC is < 16 µg/mL.

For `NC[C@@H]1C[C@@H](O)CN1c1nc(Nc2ccc(C(=O)CC(=O)Nc3ccccc3Cl)cc2)nc(N2C[C@H](N)C[C@H](N)C2)n1` [3-{4-[4-((2S,4R)-2-Aminomethyl-4-hydroxy-pyrrolidin-1-yl)-6-((3R,5S)-3,5-diamino-piperidin-1-yl)-[1,3,5]triazin-2-ylamino]-phenyl}-N-(2-chloro-phenyl)-3-oxo-propionamide], which MIC is on record?
Its MIC is < 64 µg/mL.

For `Cc1ccccc1NNc1nc(N2C[C@H](N)C[C@H](N)C2)nc(N2C[C@H](N)C[C@H](N)C2)n1` [N-(4,6-Bis-((3R,5S)-3,5-diamino-piperidin-1-yl)-[1,3,5]triazin-2-yl)-N′-o-Tolyl-hydrazine], which MIC is on record?
The MIC was < 64 µg/mL.

For `Cl.N[C@@H]1C[C@H](N)CN(c2nc(Nc3ccccc3S(N)(=O)=O)nc(N3C[C@H](N)C[C@H](N)C3)n2)C1` [N-(2-sulfamoyl-phenyl)-4,6-Bis-((3R,5S)-3,5-diamino-piperidin-1-yl)-[1,3,5]triazine-2-amine], which MIC [1] is on record?
Its MIC is > 64 µg/mL.

How did the MIC turn out when `NCCN(CCN)c1nc(Nc2ccc3c(c2)-c2ccccc2C3=O)nc(N2C[C@H](N)C[C@H](N)C2)n1` [3-[4-[Bis(2-amino-ethyl)-amino]-6-((3R,5S)-3,5-diamino-piperidin-1-yl)-[1,3,5]triazin-2-ylamino]-fluoren-9-one] was run?
The MIC was > 64 µg/mL.

Which MIC does the source give for `N[C@@H]1C[C@H](N)CN(c2nc(Nc3ccc(NC(=O)c4ccc(Cl)cc4O)c(C(=O)Nc4ccccc4)c3)nc(N3C[C@H](N)C[C@H](N)C3)n2)C1` [N-[4-(4-chloro-2-hydroxy-benzoylamino)-3-phenylcarbamoyl-phenyl]-4,6-Bis-((3R,5S)-3,5-diamino-piperidin-1-yl)-[1,3,5]triazine-2-amine] here?
The MIC was < 16 µg/mL.

For `N[C@@H]1C[C@H](N)CN(c2nc(Nc3ccc(C(=O)CC(=O)Nc4cc(C(F)(F)F)ccc4Cl)cc3)nc(N3C[C@H](N)C[C@H](N)C3)n2)C1` [N-{4-[2-(2-chloro-5-trifluoromethyl-phenylcarbamoyl)-acetyl]-phenyl}-4,6-Bis-((3R,5S)-3,5-diamino-piperidin-1-yl)-[1,3,5]triazine-2-amine], which MIC is on record?
Its MIC is < 16 µg/mL.

Which MIC [1] does the source give for `COC(=O)c1c(N2C[C@H](N)C[C@H](N)C2)nc2ccccc2c1N1C[C@H](N)C[C@H](N)C1.Cl` [2,4-Bis-((3R,5S)-3,5-diamino-piperidin-1-yl)-quinoline-3-carboxylic acidmethylester] here?
The MIC was > 64 µg/mL.

With `COc1nc(Nc2ccc(C(=O)CC(=O)Nc3ccc(F)c(F)c3)cc2)nc(N2C[C@H](N)C[C@H](N)C2)n1` [3-{4-[4-((3R,5S)-3,5-Diamino-piperidin-1-yl)-6-methoxy-[1,3,5]triazin-2-ylamino]-phenyl}-N-(3,4-difluoro-phenyl)-3-oxo-propionamide] as the compound, how does the MIC read?
Its MIC is < 16 µg/mL.

Which MIC [1] does the source give for `Cc1cc(=O)oc2cc(Nc3nc(N4C[C@H](N)C[C@H](N)C4)nc(N4CCC[C@@H](O)C4)n3)ccc12` [7-[4-((3R,5S)-3,5-Diamino-piperidin-1-yl)-6-((R)-3-hydroxy-piperidin-1-yl)-[1,3,5]triazin-2-ylamino]-4-methyl-chromen-2-one] here?
Its MIC is < 64 µg/mL.

How did the MIC turn out when `NCCNc1nc(Nc2ccc3c(c2)-c2ccccc2C3=O)nc(N2C[C@H](N)C[C@H](N)C2)n1` [3-[4-(2-Amino-ethylamino)-6-((3R,5S)-3,5-diamino-piperidin-1-yl)-[1,3,5]triazin-2-ylamino]-fluoren-9-one] was run?
The MIC was > 64 µg/mL.

With `N[C@@H]1C[C@H](N)CN(c2nc(Nc3ccc(NS(=O)(=O)c4ccc5c(c4)CN(C(=O)C(F)(F)F)CC5)c(O)c3)nc(N3C[C@H](N)C[C@H](N)C3)n2)C1` [N-{3-hydroxy-4-[2-(2,2,2-trifluoro-acetyl)-1,2,3,4-tetrahydro-isoquinoline-7-sulfonylamino]-phenyl}-4,6-Bis-((3R,5S)-3,5-diamino-piperidin-1-yl)-[1,3,5]triazine-2-amine] as the compound, how does the MIC read?
The MIC was > 64 µg/mL.

With `CCN(CC)CCNC(=O)c1ccc(Nc2nc(N3C[C@H](N)C[C@H](N)C3)nc(N3C[C@H](N)C[C@H](N)C3)n2)cc1` [N-[4-(2-diethylamino-ethylcarbamoyl)-phenyl]-4,6-Bis-((3R,5S)-3,5-diamino-piperidin-1-yl)-[1,3,5]triazine-2-amine] as the compound, how does the MIC read?
The MIC was < 64 µg/mL.

For `N[C@@H]1C[C@H](N)CN(c2nc(NCCCn3ccnc3)nc(N3C[C@H](N)C[C@H](N)C3)n2)C1` [N-(3-imidazol-1-yl-propyl)-4,6-Bis-((3R,5S)-3,5-diamino-piperidin-1-yl)-[1,3,5]triazine-2-amine], which MIC is on record?
The MIC was > 64 µg/mL.

`Cc1ccc(S(=O)(=O)N(Cc2ccccc2)c2ccc(Nc3nc(N4C[C@H](N)C[C@H](N)C4)nc(N4C[C@@H](N)C[C@H]4CN)n3)cc2O)cc1` [N-{4-[4-((2S,4S)-4-Amino-2-aminomethyl-pyrrolidin-1-yl)-6-((3R,5S)-3,5-diamino-piperidin-1-yl)-[1,3,5]triazin-2-ylamino]-2-hydroxy-phenyl}-N-benzyl-4-methyl-benzenesulfonamide] was tested. Which MIC did it give?
Its MIC is < 64 µg/mL.

Which MIC does the source give for `Cc1cc(Nc2nc(N3C[C@H](N)C[C@H](N)C3)nc(N3C[C@H](N)C[C@H](N)C3)n2)ccc1NC(=O)c1cccc([N+](=O)[O-])c1O` [N-[4-(2-hydroxy-3-nitro-benzoylamino)-3-methyl-phenyl]-4,6-Bis-((3R,5S)-3,5-diamino-piperidin-1-yl)-[1,3,5]triazine-2-amine] here?
The MIC was < 64 µg/mL.

How did the MIC turn out when `N[C@@H]1C[C@H](N)CN(c2nc(Nc3ccc(NS(=O)(=O)c4cc(Cl)cc(Cl)c4)c(O)c3)nc(N3C[C@H](N)C[C@H](N)C3)n2)C1` [N-[4-(3,5-dichloro-benzenesulfonylamino)-3-hydroxy-phenyl]-4,6-Bis-((3R,5S)-3,5-diamino-piperidin-1-yl)-[1,3,5]triazine-2-amine] was run?
Its MIC is < 64 µg/mL.

For `Cc1cc(O)c(C)c(O)c1C(=O)Nc1ccc(Nc2nc(N3C[C@H](N)C[C@H](N)C3)nc(N3C[C@H](N)C[C@H](N)C3)n2)cc1` [N-[4-(2,4-dihydroxy-3,6-dimethyl-benzoylamino)-phenyl]-4,6-Bis-((3R,5S)-3,5-diamino-piperidin-1-yl)-[1,3,5]triazine-2-amine], which MIC is on record?
The MIC was < 16 µg/mL.

How did the MIC [1] turn out when `Cc1cc(Br)ccc1Nc1nc(N2CCCCC2)nc(N2CCCCC2)n1.Cl` [4-[4,6-Bis-((3R,5S)-3,5-diamino-piperidin-1-yl)-[1,3,5]triazin-2-ylammino]-benzoic acid methyl ester] was run?
Its MIC is > 64 µg/mL.

With `Cc1cc(=O)oc2cc(NC(=O)c3ccc(Nc4nc(N5C[C@H](N)C[C@H](N)C5)nc(N5C[C@H](N)C[C@H](N)C5)n4)cc3O)ccc12` [N-[3-hydroxy-4-(4-methyl-2-oxo-2H-chromen-7-ylcarbamoyl)-phenyl]-4,6-Bis-((3R,5S)-3,5-diamino-piperidin-1-yl)-[1,3,5]triazine-2-amine] as the compound, how does the MIC read?
The MIC was < 16 µg/mL.

How did the MIC [1] turn out when `CC(=O)c1ccc(Nc2nc(N3C[C@H](N)C[C@H](N)C3)nc(N3C[C@H](O)C[C@@H](O)C3)n2)cc1` [1-{4-[4-((3R,5S)-3,5-Diamino-piperidin-1-yl)-6-((3R,5R)-3,5-dihydroxy-piperidin-1-yl)-[1,3,5]triazin-2-ylamino]-phenyl}-ethanone] was run?
The MIC was > 64 µg/mL.

Which MIC does the source give for `N[C@@H]1C[C@H](N)CN(c2nc(Nc3ccc4ccccc4c3)nc(N3C[C@H](N)C[C@H](N)C3)n2)C1` [N-naphthalene-2-yl-4,6-Bis-((3R,5S)-3,5-diamino-piperidin-1-yl)-[1,3,5]triazine-2-amine] here?
The MIC was < 64 µg/mL.

`Cc1ccc(C(=O)Nc2ccc(Nc3nc(N4C[C@H](N)C[C@H](N)C4)nc(N4C[C@H](N)C[C@H](N)C4)n3)cc2O)c(O)n1` [N-{3-hydroxy-4-[(2-hydroxy-6-methyl-pyridine-3-carbonyl)-amino]-phenyl}-4,6-Bis-((3R,5S)-3,5-diamino-piperidin-1-yl)-[1,3,5]triazine-2-amine] was tested. Which MIC did it give?
Its MIC is < 64 µg/mL.

`N[C@@H]1C[C@H](N)CN(c2nc(Nc3ccc4c(c3)-c3ccccc3C4=O)nc(N3CCC[C@@H](O)C3)n2)C1` [3-[4-((3S,5R)-3,5-Diamino-piperidin-1-yl)-6-((R)-3-hydroxy-piperidin-1-yl)-[1,3,5]triazin-2-ylamino]-fluoren-9-one] was tested. Which MIC did it give?
The MIC was < 64 µg/mL.

How did the MIC turn out when `Nc1cccc(NC(=O)CC(=O)c2ccc(Nc3nc(N4C[C@H](N)C[C@H](N)C4)nc(N4C[C@H](N)C[C@H](N)C4)n3)cc2)c1` [N-{4-[2-(3-amino-phenylcarbamoyl)-acetyl]-phenyl}-4,6-Bis-((3R,5S)-3,5-diamino-piperidin-1-yl)-[1,3,5]triazine-2-amine] was run?
The MIC was > 64 µg/mL.
